Measurements taken from US20130172324A1, “METHOD FOR TREATING CARDIOVASCULAR DISEASES USING RHO KINASE INHIBITOR COMPOUNDS” (priority 2008, published 2013).
Where two headings read alike, the source gives them in different places. One block for each compound: values may come before it.

System: rat trachea rings
Assay: Tracheal relaxation assay (carbachol precontracted rings);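 further: isometric tension of rat tracheal rings in Krebs buffer with 1 µM indomethacin, compounds added cumulatively at 30 min intervals, basal tension subtracted, fit to Hill equation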
Conditions: for Percentage of carbachol-induced contraction at 10 μM compound, Avg % / Percentage of carbachol-induced contraction at 1 μM compound, Avg %: 1 μM carbachol; for IC50: read-out: IC50 Avg; for Trachael Ring Contraction, %: average percentage of carbachol-induced rat tracheal ring contraction at 1 μM of test compound
[1] = relaxation of 1 μM carbachol precontracted rat tracheal rings

SMILES: CS(=O)(=O)Nc1cccc(CN2CCC[C@H](Nc3cccc4cnccc34)C2)c1 [Compound 2.037, (S)-N-(3-((3-(isoquinolin-5-ylamino)piperidin-1-yl)methyl)phenyl)methanesulfonamide]
Percentage of carbachol-induced contraction at 10 μM compound, Avg %: 21.3%
IC50 (Rattus norvegicus): 2120 nM

SMILES: Oc1cccc(CN2CCC[C@H](Nc3ccc4[nH]ncc4c3)C2)c1 [Compound 1.163, (S)-3-((3-(1H-indazol-5-ylamino)piperidin-1-yl)methyl)phenol]
Percentage of carbachol-induced contraction at 1 μM compound, Avg %: 35.4%
Trachael Ring Contraction, %: 35%

IC50 Avg [1]: could not be obtained
SMILES: O=S(=O)(c1cccc2cnccc12)N1CCCNCC1 [Fasudil, reference compound]
Percentage of carbachol-induced contraction at 10 μM compound, Avg % (listed as fasudil): 43.0%

SMILES: CSc1ccc(CN2CCC[C@@H](Nc3ccc4[nH]ncc4c3)C2)cc1 [Compound 1.074, (R)-N-(1-(4-(methylthio)benzyl)piperidin-3-yl)-1H-indazol-5-amine]
Percentage of carbachol-induced contraction at 1 μM compound, Avg %: 39.6%
Percentage of carbachol-induced contraction at 10 μM compound, Avg %: −15.1%
IC50 (Rattus norvegicus): 729 nM
Trachael Ring Contraction, %: 40%

SMILES: Cc1ccc(CN2CCC[C@H](Nc3ccc4[nH]ncc4c3)C2)cc1O [Compound 1.151, (S)-5-((3-(1H-indazol-5-ylamino)piperidin-1-yl)methyl)-2-methylphenol]
Percentage of carbachol-induced contraction at 1 μM compound, Avg %: 33.1%

SMILES: c1cc2ccc(CN3CCC[C@H](Nc4ccc5[nH]ncc5c4)C3)cc2[nH]1 [Compound 1.148, (S)-N-(1-((1H-indol-6-yl)methyl)piperidin-3-yl)-1H-indazol-5-amine]
Percentage of carbachol-induced contraction at 1 μM compound, Avg %: 51.2%
Trachael Ring Contraction, %: 51%

SMILES: CCOC(=O)COc1cccc(CN2CCC[C@H](Nc3ccc4[nH]ncc4c3)C2)c1 [Compound 1.200, (S)-ethyl 2-(3-((3-(1H-indazol-5-ylamino)piperidin-1-yl)methyl)phenoxy)acetate]
Percentage of carbachol-induced contraction at 1 μM compound, Avg %: 91.5%
Trachael Ring Contraction, %: 92%

IC50 [1]: 190 nM
SMILES: C[C@@H](N)c1ccc(C(=O)Nc2ccnc3[nH]ccc23)cc1 [Compound Y-39983, reference compound]
Percentage of carbachol-induced contraction at 1 μM compound, Avg %: 26.5%
Percentage of carbachol-induced contraction at 10 μM compound, Avg %: −6.0%

SMILES: Fc1ccc(CN2CCC[C@H](Nc3ccc4[nH]ncc4c3)C2)cc1F [Compound 1.072, (S)-N-(1-(3,4-difluorobenzyl)piperidin-3-yl)-1H-indazol-5-amine]
Percentage of carbachol-induced contraction at 1 μM compound, Avg %: 33.1%

SMILES: c1cc2cc(CN3CCC[C@H](Nc4ccc5[nH]ncc5c4)C3)ccc2o1 [Compound 1.150, (S)-N-(1-(benzofuran-5-ylmethyl)piperidin-3-yl)-1H-indazol-5-amine]
Percentage of carbachol-induced contraction at 1 μM compound, Avg %: 39.7%
Trachael Ring Contraction, %: 40%

SMILES: CCS(=O)(=O)Nc1cccc(CN2CC[C@@H](Nc3cccc4cnccc34)C2)c1 [Compound 2.041, (R)-N-(3-((3-(isoquinolin-5-ylamino)pyrrolidin-1-yl)methyl)phenyl)ethanesulfonamide]
Percentage of carbachol-induced contraction at 10 μM compound, Avg %: −5.4%
IC50 (Rattus norvegicus): 162 nM

SMILES: c1cc2cc(CN3CCC[C@H](Nc4ccc5[nH]ncc5c4)C3)ccc2[nH]1 [Compound 1.149, (S)-N-(1-((1H-indol-5-yl)methyl)piperidin-3-yl)-1H-indazol-5-amine]
Percentage of carbachol-induced contraction at 1 μM compound, Avg %: 34.4%
Trachael Ring Contraction, %: 34%

SMILES: NC(=O)Cn1ccc2ccc(CN3CCC[C@H](Nc4ccc5[nH]ncc5c4)C3)cc21 [Compound 1.107, (S)-2-(6-((3-(1H-indazol-5-ylamino)piperidin-1-yl)methyl)-1H-indol-1-yl)acetamide]
Percentage of carbachol-induced contraction at 10 μM compound, Avg %: 9.9%
IC50 (Rattus norvegicus): 1240 nM

SMILES: CSc1ccc(CN2CCC[C@H](Nc3ccc4[nH]ncc4c3)C2)cc1 [Compound 1.075, (S)-N-(1-(4-(methylthio)benzyl)piperidin-3-yl)-1H-indazol-5-amine]
Percentage of carbachol-induced contraction at 1 μM compound, Avg %: 39.1%
Trachael Ring Contraction, %: 39%

SMILES: CCS(=O)(=O)Nc1cccc(CN2CCC[C@@H](Nc3ccc4[nH]ncc4c3)C2)c1 [Compound 1.123, (R)-N-(3-((3-(1H-indazol-5-ylamino)piperidin-1-yl)methyl)phenyl)ethanesulfonamide]
Percentage of carbachol-induced contraction at 1 μM compound, Avg %: 46.7%
Percentage of carbachol-induced contraction at 10 μM compound, Avg %: 4.6%
IC50 (Rattus norvegicus): 45 nM
Trachael Ring Contraction, %: 47%

SMILES: O=C(O)COc1cccc(CN2CCC[C@H](Nc3ccc4[nH]ncc4c3)C2)c1 [Compound 1.196, (S)-2-(3-((3-(1H-indazol-5-ylamino)piperidin-1-yl)methyl)phenoxy)acetic acid]
Percentage of carbachol-induced contraction at 1 μM compound, Avg %: 96.2%

SMILES: CS(=O)(=O)Nc1cc(CN2CCC[C@@H](Nc3ccc4[nH]ncc4c3)C2)ccc1Cl [Compound 1.212, (R)-N-(5-((3-(1H-indazol-5-ylamino)piperidin-1-yl)methyl)-2-chlorophenyl)methanesulfonamide]
Percentage of carbachol-induced contraction at 1 μM compound, Avg %: 40.1%
Trachael Ring Contraction, %: 40%

SMILES: Cc1ccc(CN2CCC[C@H](Nc3cccc4cnccc34)C2)cc1 [Compound 2.045, (S)-N-(1-(4-methylbenzyl)piperidin-3-yl)isoquinolin-5-amine]
Percentage of carbachol-induced contraction at 10 μM compound, Avg %: 13.6%
IC50 (Rattus norvegicus): 2720 nM

SMILES: CC(=O)NCc1cccc(CN2CCC[C@H](Nc3ccc4[nH]ncc4c3)C2)c1 [Compound 1.197]
Percentage of carbachol-induced contraction at 1 μM compound, Avg %: 41.7%
Trachael Ring Contraction, %: 42%

SMILES: Cc1ccc(CN2CCC[C@H](Nc3ccc4[nH]ncc4c3)C2)cc1OCCO [Compound 1.152, (S)-2-(5-((3-(1H-indazol-5-ylamino)piperidin-1-yl)methyl)-2-methylphenoxy)ethanol]
Percentage of carbachol-induced contraction at 1 μM compound, Avg %: 34.4%
Trachael Ring Contraction, %: 34%

SMILES: Cc1ccc(CN2CCC[C@H](Nc3ccc4[nH]ncc4c3)C2)cc1 [Compound 1.078, (S)-N-(1-(4-methylbenzyl)piperidin-3-yl)-1H-indazol-5-amine]
Percentage of carbachol-induced contraction at 1 μM compound, Avg %: 39.6%

SMILES: CCS(=O)(=O)Nc1cccc(CN2CCC[C@H](Nc3ccc4[nH]ncc4c3)C2)c1 [Compound 1.124, (S)-N-(3-((3-(1H-indazol-5-ylamino)piperidin-1-yl)methyl)phenyl)ethanesulfonamide]
Percentage of carbachol-induced contraction at 1 μM compound, Avg %: 37.8%
Percentage of carbachol-induced contraction at 10 μM compound, Avg %: 19.7%
IC50 (Rattus norvegicus): 21 nM
Trachael Ring Contraction, %: 38%

SMILES: Cc1ccc(CN2CCC[C@@H](Nc3ccc4[nH]ncc4c3)C2)cc1O [Compound 1.173, (R)-5-((3-(1H-indazol-5-ylamino)piperidin-1-yl)methyl)-2-methylphenol]
Percentage of carbachol-induced contraction at 1 μM compound, Avg %: 32.8%
Trachael Ring Contraction, %: 33%

SMILES: NCc1cccc(CN2CCC[C@H](Nc3ccc4[nH]ncc4c3)C2)c1 [Compound 1.184, (S)-N-(1-(3-(aminomethyl)benzyl)piperidin-3-yl)-1H-indazol-5-amine]
Percentage of carbachol-induced contraction at 1 μM compound, Avg %: 88.6%

SMILES: C#Cc1cccc(CN2CCC[C@H](Nc3ccc4[nH]ncc4c3)C2)c1 [Compound 1.153, (S)-N-(1-(3-ethynylbenzyl)piperidin-3-yl)-1H-indazol-5-amine]
Percentage of carbachol-induced contraction at 1 μM compound, Avg %: 40.9%
Trachael Ring Contraction, %: 41%

SMILES: Cc1cncc2cccc(S(=O)(=O)N3CCCNC[C@@H]3C)c12 [Compound H-1152, reference compound]
Percentage of carbachol-induced contraction at 10 μM compound, Avg %: −6.5%
